Experimental data as given in ChEMBL document CHEMBL3044613, “Insecticidal and Neuroblocking Activities of Thiacloprid and Its Acyclic Analogues and Their Related Cyanoguanidine Derivatives” (J Pestic Sci, 2002).
Activity calls are given as the source filed them. No cut-off for these calls is given here.

Key:
[1] = Octanol-water partition coefficient, log P of the compound at 23 degC by shake flask method; assay type: physicochemical
[2] = tested on: Periplaneta americana; assay: Insecticidal activity against Periplaneta americana (American cockroach) assessed as killing compound injected into abdomen of cockroach after 24 hr in presence of 50 ug piperonyl butoxide oxidative metabolism inhibitor and 50 ug propargyl propyl benzenephosphonate inhibitor of hydrolytic; assay type: functional
[3] = tested on: Periplaneta americana; assay: Insecticidal activity against Periplaneta americana (American cockroach) assessed as killing compound injected into abdomen of cockroach after 24 hr; assay type: functional
[4] = tested on: Periplaneta americana; assay: Insecticidal activity against Periplaneta americana (American cockroach) assessed as neuroblocking concentration; assay type: functional
[5] = tested on: Periplaneta americana; assay: Insecticidal activity against Periplaneta americana (American cockroach) assessed as killing compound injected into abdomen of cockroach after 24 hr in presence of 50 ug piperonyl butoxide oxidative metabolism inhibitor; assay type: functional
[6] = tested on: Periplaneta americana; assay: Insecticidal activity against Periplaneta americana (American cockroach) assessed as killing compound injected into abdomen of cockroach after 24 hr in presence of 50 ug propargyl propyl benzenephosphonate inhibitor of hydrolytic metabolism of tetramethrin pyrethroid; assay type: functional
[7] = tested on: Periplaneta americana; assay: Insecticidal activity against Periplaneta americana (American cockroach) assessed as increase in frequency of impulses in nerve preparation measured immediately after treatment at 10^-5 M by electrophysiological method; assay type: functional, organism-based

| SMILES | logP [1] | MLD [2] [nmol] | MLD [3] [nmol] | Activity [4] [µM] | MLD [5] [nmol] | MLD [6] [nmol] | Activity [7] |
| --- | --- | --- | --- | --- | --- | --- | --- |
| CN/C(=N\C#N)N(C)Cc1ccc(Cl)nc1 | 0.78 | 54 | 68 | >170 | – | – | – |
| CCN/C(=N\C#N)NCc1ccc(Cl)nc1 | 0.86 | >170 | >170 | >170 | – | – | – |
| CN(C)/C(=N\C#N)NCc1ccc(Cl)nc1 | 0.66 | 140 | >170 | >170 | – | – | – |
| O=[N+]([O-])/N=C1\NCCN1Cc1ccc(Cl)nc1 [IMIDACLOPRID] | 0.6 | 0.07 | 1.1 | 2.3 | 0.55 | 0.19 | – |
| N#C/N=C1\SCCN1Cc1ccc(Cl)nc1 [THIACLOPRID] | 1.2 | 0.21 | 21 | 2.6 | 5.9 | 0.46 | – |
| CN/C(=N\C#N)NCc1ccc(Cl)nc1 | 0.84 | 8.9 | >180 | 110 | 180 | 18 | Active |
| CCN/C(=N\C#N)N(C)Cc1ccc(Cl)nc1 | 1.02 | 40 | 26 | >160 | – | – | – |
| N#C/N=C(\NCc1ccccc1)NCc1ccc(Cl)nc1 | – | 66 | >66 | 150 | – | – | – |
| CN(Cc1ccc(Cl)nc1)/C(N)=N/C#N | 0.71 | 1.2 | 22 | 9.6 | 14 | 0.71 | – |
| CS/C(=N\C#N)NCc1ccc(Cl)nc1 | 1.27 | 0.66 | >83 | 1.7 | 21 | 0.83 | – |
| CN(Cc1ccc(Cl)nc1)/C(=N/C#N)NCc1ccccc1 | 1.32 | 6.3 | 81 | 150 | 25 | 8.1 | – |
| CS/C(=N\C#N)N(C)Cc1ccc(Cl)nc1 | 1.4 | 2.5 | 160 | 6 | 71 | 6.3 | – |
| CN(C)/C(=N\C#N)N(C)Cc1ccc(Cl)nc1 | 0.66 | 20 | 320 | >400 | 200 | 32 | – |
